Laboratory results taken from the supplement of paper PMC4862054.

Legend:
Test in all cases: normalised viability (% of control), CellTiter-Blue; higher = more viable cells (about 100 = DMSO control)
Conditions in all cases: incubation time: 72 h
BT-474 = system: BT-474
Experimental: (§1)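 DSRT, CellTiter-Blue viability, 72 h incubation. Signal is normalised to DMSO and benzethonium chloride controls. Value is the normalised response at dose 3.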

CAL-120 = system: CAL-120
Experimental: as §1

CAL-51 = system: CAL-51
Experimental: as §1

CAL-85-1 = system: CAL-85-1
Experimental: as §1

DU-4475 = system: DU-4475
Experimental: as §1

HCC1143 = system: HCC1143
Experimental: as §1

HCC1599 = system: HCC1599
Experimental: as §1

HCC1937 = system: HCC1937
Experimental: as §1

HDQ-P1 = system: HDQ-P1
Experimental: as §1

Hs578T = system: Hs578T
Experimental: as §1

MDA-MB-231 = system: MDA-MB-231
Experimental: as §1

MDA-MB-436 = system: MDA-MB-436
Experimental: as §1

MDA-MB-468 = system: MDA-MB-468
Experimental: as §1

SK-BR-3 = system: SK-BR-3
Experimental: as §1

| Compound | normalised viability (BT-474; 100 nM) [%] | normalised viability (CAL-120; 100 nM) [%] | normalised viability (CAL-51; 10 nM) [%] | normalised viability (CAL-85-1; 10 nM) [%] | normalised viability (DU-4475; 10 nM) [%] | normalised viability (HCC1143; 100 nM) [%] | normalised viability (HCC1599; 100 nM) [%] | normalised viability (HCC1937; 100 nM) [%] | normalised viability (HDQ-P1; 10 nM) [%] | normalised viability (Hs578T; 100 nM) [%] | normalised viability (MDA-MB-231; 100 nM) [%] | normalised viability (MDA-MB-436; 100 nM) [%] | normalised viability (MDA-MB-468; 100 nM) [%] | normalised viability (SK-BR-3; 100 nM) [%] | further results |
| --- | --- | --- | --- | --- | --- | --- | --- | --- | --- | --- | --- | --- | --- | --- | --- |
| Cn1c(Nc2ccc(C(F)(F)F)cc2)nc2cc(Oc3ccnc(-c4ncc(C(F)(F)F)[nH]4)c3)ccc21 [RAF265] | – | – | – | – | – | – | – | – | – | – | – | – | – | – | normalised viability (BT-474; 10 nM): 103%; normalised viability (CAL-120; 10 nM): 82.2%; normalised viability (CAL-51; 1 nM): 92.9%; normalised viability (CAL-85-1; 1 nM): 92%; normalised viability (DU-4475; 1 nM): 92.1%; normalised viability (HCC1143; 10 nM): 77.8%; normalised viability (HCC1599; 10 nM): 97.2%; normalised viability (HCC1937; 10 nM): 93.2%; normalised viability (HDQ-P1; 1 nM): 109%; normalised viability (Hs578T; 10 nM): 89.7%; normalised viability (MDA-MB-231; 10 nM): 100%; normalised viability (MDA-MB-436; 10 nM): 98.9%; normalised viability (MDA-MB-468; 10 nM): 104%; normalised viability (SK-BR-3; 10 nM): 102% |
| CNCc1ccc(-c2[nH]c3cc(F)cc4c3c2CCNC4=O)cc1 [Rucaparib] | 100 | 93.3 | 114 | 87.6 | 106 | 110 | 114 | 85.9 | 109 | 75.2 | 98 | 129 | 110 | 76.4 | – |
| N[C@@H](CSC(c1ccccc1)(c1ccccc1)c1ccccc1)C(=O)O [S-trityl-L-cysteine] | – | – | – | – | – | – | – | – | – | – | – | – | – | – | normalised viability (BT-474; 400 nM): 109%; normalised viability (CAL-120; 400 nM): 110%; normalised viability (CAL-51; 40 nM): 87.4%; normalised viability (CAL-85-1; 40 nM): 101%; normalised viability (DU-4475; 40 nM): 99.9%; normalised viability (HCC1143; 400 nM): 122%; normalised viability (HCC1599; 400 nM): 89.6%; normalised viability (HCC1937; 400 nM): 81.5%; normalised viability (HDQ-P1; 40 nM): 94.1%; normalised viability (Hs578T; 400 nM): 92.2%; normalised viability (MDA-MB-231; 400 nM): 91.7%; normalised viability (MDA-MB-436; 400 nM): 98.6%; normalised viability (MDA-MB-468; 400 nM): 101%; normalised viability (SK-BR-3; 400 nM): 95.8% |
| CN(N=O)C(=O)N[C@@H](C=O)[C@@H](O)[C@H](O)[C@H](O)CO [Streptozocin] | 104 | 105 | 109 | 105 | 99.1 | 101 | 101 | 90.7 | 106 | 102 | 101 | 101 | 106 | 95.7 | – |
| O=C1CCC(N2C(=O)c3ccccc3C2=O)C(=O)N1 (configuration not stated) [Thalidomide] | 109 | 105 | 90.7 | 100 | 91.3 | 112 | 108 | 90.2 | 101 | 91.9 | 106 | 105 | 98.2 | 111 | – |
| CN[C@@H]1C[C@H]2O[C@@](C)([C@@H]1OC)n1c3ccccc3c3c4c(c5c6ccccc6n2c5c31)C(=O)N[C@H]4O [UCN-01] | 94.6 | 30.4 | 97.5 | 86.9 | 101 | 50.2 | 56.3 | 42 | 72.9 | 14.4 | 37 | 75.1 | 56.2 | 44.2 | – |
| Clc1ccc(Nc2nnc(Cc3ccncc3)c3ccccc23)cc1 [Vatalanib] | 100 | 79.7 | 101 | 97.3 | 97.9 | 78.9 | 109 | 112 | 105 | 100 | 89.1 | 119 | 100 | 66.5 | – |
| CCC1=C[C@@H]2CN(C1)Cc1c([nH]c3ccccc13)[C@@](C(=O)OC)(c1cc3c(cc1OC)N(C)[C@H]1[C@@](O)(C(=O)OC)[C@H](OC(C)=O)[C@]4(CC)C=CCN5CC[C@]31[C@@H]54)C2 [Vinorelbine] | 43.6 | 30.6 | 99.9 | 91.3 | 107 | 54.4 | 90.4 | 28 | 99.6 | 28.7 | 37.2 | 56.8 | 39.9 | 15.7 | – |
